Here are results for three compounds from PMC5356226 (ACS chemical biology, 2016).

Molecules are shown by their SMILES.

Experiment [1] concerns the target T1, hGLUT1 (Homo sapiens, UniProt P11166).
T1 sequence (P11166 1-492): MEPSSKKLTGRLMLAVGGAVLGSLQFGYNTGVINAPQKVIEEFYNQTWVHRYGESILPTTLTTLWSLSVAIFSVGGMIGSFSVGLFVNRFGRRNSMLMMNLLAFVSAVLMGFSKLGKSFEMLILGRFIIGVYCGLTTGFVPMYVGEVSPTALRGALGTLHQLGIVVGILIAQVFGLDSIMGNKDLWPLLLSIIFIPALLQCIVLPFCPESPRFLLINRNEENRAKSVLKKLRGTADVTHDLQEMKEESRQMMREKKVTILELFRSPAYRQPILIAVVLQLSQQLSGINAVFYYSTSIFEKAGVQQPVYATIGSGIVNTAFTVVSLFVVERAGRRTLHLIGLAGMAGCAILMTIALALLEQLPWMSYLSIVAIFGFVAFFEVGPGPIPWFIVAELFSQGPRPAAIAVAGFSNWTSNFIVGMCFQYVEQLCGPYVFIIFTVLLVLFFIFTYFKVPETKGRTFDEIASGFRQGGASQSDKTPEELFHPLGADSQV
The experiment can be described thus: [3H]-2-deoxy-D-glucose uptake inhibition assay in CHO-hGLUT1 cells. It counts as cell-based.

The target in experiment [2] is T1, hGLUT1. The conditions noted are these: known hGLUT1 inhibitors; cited from earlier work.

`O=C(CCc1ccc(O)cc1)c1c(O)cc(O)cc1O[C@@H]1O[C@H](CO)[C@@H](O)[C@H](O)[C@H]1O` [PUG-5, phlorizin] returned a concentration for half-maximal inhibition (IC50) on hGLUT1 [1] of 23 µM. With `C=C1[C@@H](C)[C@H]2[C@H](Cc3ccccc3)NC(=O)[C@]23OC(=O)/C=C/[C@H](O)CCC[C@@H](C)C/C=C/[C@H]3[C@@H]1O` [cytochalasin B], the “LE (ligand efficiency)” value at hGLUT1 [2] is 0.265 kcal/mol/HA. As for `C=C[C@@]1(C)CC(=O)[C@]2(O)[C@@]3(C)[C@@H](O)CCC(C)(C)[C@@H]3[C@H](O)[C@H](OC(C)=O)[C@@]2(C)O1` [forskolin], on hGLUT1 [2], the “LE (ligand efficiency)” value is listed as 0.270 kcal/mol/HA.

Usually IC50 stands for the point on the concentration scale where inhibition reaches its midpoint. Low readings indicate greater potency, high ones weaker potency.
